Source: patent publication US9539237B2, “Compositions and methods for drug-sensitization or inhibition of a cancer cell” (The Texas A&M University System, priority 2012, dated 2017)

What was measured:
[1] = test system: CHOP-resistant G3 NHL cells; test: Cell growth assay (resazurin fluorescence) on G3 cells; assay type: cell-based, human
Procedure: Compositions were tested on CHOP-resistant G3 NHL cells that had been cultivated in RPMI medium for five days. Prior to assay, the cells were counted by haemocytometer and cell concentration standardized to 625,000 cells/ml. Test drugs were solubilized in 100% DMSO and then diluted to final assay concentration with 0.1M phosphate buffered saline (PBS) and a final DMSO concentration of 0.5%. […] The metabolic dye rezasurin was added to the wells of the assay plate at a final concentration of 20 μg/ml and the plates were incubated for an additional 24 hours. The plates were then read in a BMG Polarstar plate reader at wavelength (573-605) and the data plotted as OD versus increasing dilutions (i.e., decreasing total amounts) of rifabutin derivative concentration.
In these experiments, the following cell lines were used: CHOP-resistant NHL cell line G3, CHOP-sensitive NHL cell line CRL2631, the multi-drug resistant sarcoma cell line MES-SA-Dx5; multi-drug-resistant breast cancer cell line MDA-MB-231, multi-drug resistant ovarian carcinoma cell line SK-OV3, multi-drug resistant ovarian cancer cell line NCI/ADR-RES, drug-sensitive ovarian cancer cell line OVCAR-5, and multi-drug resistant ovarian cancer cell line OVCAR-3. […]

[2] = test system: CHOP-sensitive NHL cell line CRL2631; test: Cell growth assay (resazurin fluorescence) on CRL2631 cells; assay type: cell-based, human
Excerpt: Several human cell lines were utilized as in vitro models of NHL, including the CRL2631 line obtained from the American Type Culture Collection (ATCC). CRL2631 was established from peripheral blood leukocytes (PBL) of a patient with DLBCL.
In these experiments, the following cell lines were used: CHOP-resistant NHL cell line G3, CHOP-sensitive NHL cell line CRL2631, the multi-drug resistant sarcoma cell line MES-SA-Dx5; multi-drug-resistant breast cancer cell line MDA-MB-231, multi-drug resistant ovarian carcinoma cell line SK-OV3, multi-drug resistant ovarian cancer cell line NCI/ADR-RES, drug-sensitive ovarian cancer cell line OVCAR-5, and multi-drug resistant ovarian cancer cell line OVCAR-3.
Additional cell lines used include: ovarian cancer OVCAR-8. T lymphoblastoid leukemia MOLT-4, dexamethasone-resistant multiple myeloma MM.1R, myeloid leukemia cells HL-60, osteosarcoma cells U-2 OS, and myeloma RPMI 8226.

[3] = test system: lymphoma aspirate from a dog with CHOP-resistant lymphoma; test: CHOP responsiveness of lymphoma aspirate from a dog (resazurin); assay type: cell-based
Procedure: A single lymphoma aspirate from a dog with CHOP-resistant lymphoma was tested for responsiveness to CHOP in the presence or absence of rifabutin. CHOP-responsiveness was measured by a decrease in fluorescence signal generated by resazurin.

[4] = test system: total intracellular ROS; test: Intracellular ROS by CellROX staining and flow cytometry; assay type: cell-based; settings: CHOP-resistant (G3) cells, 10 uM rifabutin, FIG. 35
Excerpt: Cells were then stained with the fluorescent ROS indicator, CellROX, and subjected to flow cytometry to quantitate total intracellular ROS.
The electron transport chain (ETC) is known to be a primary generator of ROS in the cell. Most of the ROS is generated by Complexes I and III of the ETC. Inhibition of Complex I results in electrons piling up and leaking to react with oxygen to produce ROS.
MDR/P-gp activity is closely associated with calcium status in the cell, so calcium modulators were tested for effects on ROS. […] Relatively Dox-sensitive lymphoma (CRL2631, 10S, WSU) and ovarian carcinoma (OVCAR8) and more Dox-resistant lymphoma (G3R, 10R, WSUR) and ovarian carcinoma (ADR) were treated with 10 uM […] for 2 hrs. […] Cells were co-stained with the cell-permeable red fluorescent ROS indicator, CellROX, and cell-permeable green fluorescent calcium indicator. Fluo-4AM, and then subjected to flow cytometry to quantitate changes in ROS and calcium levels.
All samples were analyzed at the same time in flow cytometry.

[5] = test system: CRL2631 cells; test: Collagen invasion 3D assay, CRL2631 cells; assay type: cell-based, human; settings: 10 uM Rifabutin in collagen matrix, 24 hours
Procedure: The effects of rifabutin on cell invasion was assessed in a collagen invasion 3D assay. Increased interest in the use of 3D culture systems has been motivated by accumulating evidence that 3D models better reflect the microenvironment of tumors and metastases and more accurately predict therapeutic response in vivo compared with conventional 2D assays. A collagen invasion 3D assay allows the rapid and quantitative assessment of invasiveness and a means to screen for drugs which alter the invasive phenotype of tumor cells.
The CHOP-resistant G3 cell line is much more invasive in a collage invasion 3D assay than its CHOP-sensitive parent cell line (CRL2631). Collagen matrices (1 mg/ml) were prepared as previously described in Su. S. C., et al., Molecular profile of endothelial invasion of three-dimensional collagen matrices: insights into angiogenic sprout induction in wound healing. Am. J. Physiol. […] Cell invasion density was quantified by counting fixed cultures under transmitted light using an Olympus CK2 inverted microscope equipped with eyepieces displaying a 10×10 ocular grid. For each condition, four random fields were selected and the number of invading cells per high power field (HPF) was counted manually at 10× magnification, corresponding to 1 mm^2 area. […]

[6] = test system: Akt; test: Effect on Akt; assay type: cell-based
Excerpt: Although some drug-sensitization or cancer cell inhibition effects may be mediated by the ROS pathway, compositions and methods of the present disclosure may act via other cellular pathways alternatively to or in addition to the Akt/14-3-3ζ/ETC/ROS network. This may be particularly true with respect to drug-sensitization to chemotherapeutics that operate in a different manner than CHOP. For example, ROS may affect the mitochondrial-directed Bcl-2 apoptosis pathway as well. […] Accordingly, it appears likely that an initial ROS induction event may occur, followed by a secondary downstream effect downregulating Akt. In CHOP-resistant cells, Akt is constitutively active thereby increasing Complex I activity resulting in decreases in ROS. Induction of ROS by compositions and methods of the present disclosure will further promote drug sensitivity in the resistant cancer cell by downregulating the Akt pathway.

[7] = molecular target: ABCB1 pumps (Homo sapiens, UniProt P08183); settings: NCI/ADR-RES and G3 cells
Chain of ABCB1 pumps (P08183 whole entry): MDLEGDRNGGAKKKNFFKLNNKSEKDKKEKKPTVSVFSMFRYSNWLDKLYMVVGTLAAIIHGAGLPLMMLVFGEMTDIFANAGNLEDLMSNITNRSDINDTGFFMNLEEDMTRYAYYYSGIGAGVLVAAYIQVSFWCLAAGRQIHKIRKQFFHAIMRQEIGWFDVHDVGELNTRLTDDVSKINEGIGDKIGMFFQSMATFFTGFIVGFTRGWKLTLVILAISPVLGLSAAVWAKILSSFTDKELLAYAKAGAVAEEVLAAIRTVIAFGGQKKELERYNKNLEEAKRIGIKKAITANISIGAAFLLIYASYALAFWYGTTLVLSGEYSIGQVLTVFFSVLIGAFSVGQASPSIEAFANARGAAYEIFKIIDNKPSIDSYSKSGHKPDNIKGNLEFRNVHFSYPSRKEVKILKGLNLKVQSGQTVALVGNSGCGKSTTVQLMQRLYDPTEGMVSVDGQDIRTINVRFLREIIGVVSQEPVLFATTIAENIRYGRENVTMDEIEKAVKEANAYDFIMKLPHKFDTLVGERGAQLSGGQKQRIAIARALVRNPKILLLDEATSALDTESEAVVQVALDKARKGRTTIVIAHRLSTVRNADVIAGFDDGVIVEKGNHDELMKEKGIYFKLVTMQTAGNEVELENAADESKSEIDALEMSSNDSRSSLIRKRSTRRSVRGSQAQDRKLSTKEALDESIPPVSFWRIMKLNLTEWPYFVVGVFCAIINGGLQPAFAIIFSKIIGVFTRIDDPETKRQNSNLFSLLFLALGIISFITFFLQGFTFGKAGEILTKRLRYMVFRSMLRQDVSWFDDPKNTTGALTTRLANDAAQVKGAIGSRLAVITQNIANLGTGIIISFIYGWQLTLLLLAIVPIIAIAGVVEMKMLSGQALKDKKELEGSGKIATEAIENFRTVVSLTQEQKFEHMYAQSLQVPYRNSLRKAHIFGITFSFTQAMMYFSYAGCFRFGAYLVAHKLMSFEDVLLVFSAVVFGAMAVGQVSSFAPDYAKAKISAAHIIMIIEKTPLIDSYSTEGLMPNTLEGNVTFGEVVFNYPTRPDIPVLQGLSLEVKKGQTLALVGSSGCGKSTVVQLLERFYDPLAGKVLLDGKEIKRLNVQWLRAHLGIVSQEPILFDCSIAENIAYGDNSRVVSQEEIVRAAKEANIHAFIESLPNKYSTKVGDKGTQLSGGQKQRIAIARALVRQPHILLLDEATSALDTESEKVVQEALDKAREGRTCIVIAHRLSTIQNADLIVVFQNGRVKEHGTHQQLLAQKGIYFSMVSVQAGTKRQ

[8] = test system: primary human fibroblasts; test: Comparative cytotoxicity on primary human fibroblasts; settings: FIG. 3A and 3B

With `CO[C@H]1/C=C/O[C@@]2(C)Oc3c(C)c(O)c4c(c3C2=O)C2=NC3(CCN(CC(C)C)CC3)NC2=C(NC(=O)/C(C)=C\C=C\[C@H](C)[C@H](O)[C@@H](C)[C@@H](O)[C@@H](C)[C@H](OC(C)=O)[C@@H]1C)C4=O` [Rifabutin, rifabutin] the “Magnitude of potentiation in combination with doxorubicin” value ([1]; G3) was “+++ (+++ potentiation greater than 5 fold increase)”, the “Effect on growth of cells in the absence of CHOP” value ([1]; G3 cells, FIG. 2A) was “did not affect the growth” and the “Sensitivity of cells to CHOP” value ([2]; CHOP-sensitive cells, relative to a control drug, FIG. 2B) was “enhanced the sensitivity”. For the same compound, the “Effect on growth of cells in the absence of CHOP” value ([2]; CRL2631 cells, FIG. 2A) was “did not affect the growth”, the “Sensitization of low-ROS cell population to CHOP” value ([2]; low-ROS CRL2631 cells, 10 uM rifabutin, FIG. 34) was “sensitized to CHOP” and the “Sensitivity of aspirated lymphoma cells to CHOP” value ([3]; 5 μM rifabutin) was “significantly enhanced the sensitivity”. The “Effect on cell viability in the absence of CHOP” value ([3]; absence of CHOP) was “no effect”, the “Induction of ROS” value [4] was “rapidly induces ROS” and the “Reduction of the amount of invasion” value [5] was “Less of this effect”. The “Time for the effect on Akt” value [6] was “at least 18 hours”, the “Inhibition of efflux pumps” value [7] was “clear inhibition” and the “Toxicity to normal cells” value [8] was “not toxic”.
